The source of these data is US7745645B2, “Sulfonamide derivatives of xanthene compounds” (Pierce Biotechnology, Inc., priority 2007, dated 2010).

In this experiment the test system is A549 cells. Description: High Content Screening measurement of p53 induction. It is filed as cell-based. To be noted: 5 μM camptothecin, 18-20 hours. As to the method:
Any of the above described compounds are conjugated to antibodies and used for HCS measurement of p53 induction. A549 cells are seeded at 5,000 cells/well on 96 well microplates one day before treating them with different concentrations of camptothecin. In the presence of the drug, cells are incubated for 18-20 hours at 37° C., 5% CO2 in a humidified incubator. Cells are then fixed with 4% paraformaldehyde, permeabilized with 0.1% Triton X-100, and then labeled with rabbit p53 primary antibody and goat-anti-rabbit-conjugate of one of the above-described compounds. Cell nuclei are labeled with Hoechst 33342. The samples are imaged and quantitatively analyzed on an ArrayScan® HCS Reader (Cellomics, Inc. Pittsburgh Pa.). […] Camptothecin treated cells show bright p53 labeling in the nuclei.

Molecules are shown by their SMILES.

For the compound `CC[C@@]1(O)C(=O)OCc2c1cc1n(c2=O)Cc2cc3ccccc3nc2-1` [camptothecin], the “p53 induction (fluorescence images)” value is on record as “p53 induction in the nucleus”.
